Tests used:
[1] = biological target: T1, Human GPR120 short form (short splice variant, NM_001195755.1) (Homo sapiens, UniProt Q5NUL3); test: Human GPR120 Calcium Flux Assay; assay type: cell-based; details: HEK-293 cells, 4200 cells/well, read-out: Human GPR120 Calcium Flux Assay Procedure B EC50
T1 construct: expressed in transfected cells; host or cells: HEK293
T1 sequence (Q5NUL3 1-361): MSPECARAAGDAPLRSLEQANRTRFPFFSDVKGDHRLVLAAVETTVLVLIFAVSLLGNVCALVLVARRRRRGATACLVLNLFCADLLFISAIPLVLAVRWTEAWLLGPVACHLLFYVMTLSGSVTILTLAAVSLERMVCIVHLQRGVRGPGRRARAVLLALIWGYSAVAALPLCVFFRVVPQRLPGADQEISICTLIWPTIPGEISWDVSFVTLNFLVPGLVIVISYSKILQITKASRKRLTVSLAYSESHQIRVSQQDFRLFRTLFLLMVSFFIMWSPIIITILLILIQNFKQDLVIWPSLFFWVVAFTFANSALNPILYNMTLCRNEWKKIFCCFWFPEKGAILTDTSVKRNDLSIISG
Procedure, shortened: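 HEK293 cells stably expressing human GPR120 short form were starved 1 h and loaded with Fluo-4 NW dye with probenecid. Compound-induced calcium flux was read on FLIPR for 300 s, with the response taken as max minus min RFU. EC50 came from sigmoidal variable-slope fits.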

GPR40 = GPR40 (UniProt O14842); test: GPR40 Calcium Flux Assay; assay type: cell-based; details: transfected HEK293 cells stably expressing human or rat GPR40; species not given
Procedure: Biological Example 3: In Vitro Assay
Compounds were tested in a calcium flux assay using transfected HEK293 cells stably expressing either human GPR40 or rat GPR40. Human GPR40 expressing cells were cultured in DMEM-High Glucose media supplemented with 10% fetal bovine serum, 1×L-Glutamine, 1× Penicillin/Streptomycin and 500 μg/mL G418. Rat GPR40 expressing cells were cultured in DMEM-High Glucose media supplemented with 10% fetal bovine serum and 1 μg/mL puromycin. Cells were plated into poly-D-lysine coated 384-well plates and cultured overnight in a 37° C. humidified tissue culture incubator under 5% CO2/90% O2 atmosphere.
On the day of the experiment, the culture media was replaced with assay buffer (HBSS, 20 mM HEPES, 0.1% BSA) and the cells incubated at 37° C. for 1 h. Calcium-sensitive fluorescent dye (Fluo 8 No-Wash Calcium Dye, ABD Bioquest) was then added and the cells incubated for another 30 min at 37° C. followed by 15 min at room temperature while protected from the light. The cell plate and a plate of diluted compounds of Formula (I) were loaded into a fluorescent plate reader that added compounds onto the cells while measuring the fluorescence intensity of each well. The plate reader recorded fluorescence intensity at 1 second intervals for 8 min and provided the data for analysis in an Excel format. EC50 values were calculated using Prism (GraphPad) software.

EC50 [1]: 110 nM
EC50 (GPR40): > 10000 nM
SMILES: Cc1c(CCC(=O)O)ccc(OCC2=C(c3ccc(Cl)cc3)COCC2)c1C [ID No. 745, 3-[4-[[5-(4-chlorophenyl)-3,6-dihydro-2H-pyran-4-yl]methoxy]-2,3-dimethyl-phenyl]propanoic acid]
